{"source": "paper PMC6433934", "about": "“Preclinical Evaluation of Bispecific Adaptor Molecule Controlled Folate Receptor CAR-T Cell Therapy With Special Focus on Pediatric Malignancies” (Frontiers in Oncology, 2019)", "system": "THP1-FRβ", "test": "AML study, intravenous xenografts, EC17 dosing regimens", "assay_type": "in vivo, NSG mice", "method": "All animal care and use were performed according to NIH guidelines and in compliance with protocols approved by the Purdue University Animal Use and Care Committee. Female 4 to 5-weeks-old NOD/SCID gamma (NSG™) mice (stock number: 005557) were purchased from The Jackson Laboratory (Bar Harbor, ME). Unless specifically indicated, all animals were maintained on a FA-deficient diet (TestDiet, St. Louis, MO) upon arrival and throughout the study. To establish subcutaneous xenografts, MDA-MB-231 and HOS-FRα were implanted in the right flank region at 2.5 × 10^6 and 1 × 10^6 cells per animal, respectively. For intravenous xenografts, THP1-FRβ cells were inoculated at 5 × 10^6 cells per animal. Subcutaneous tumors were measured 2–3 times per week with a caliper and calculated using the ellipsoidal formula (length x width^2)/2. […] All animal doses (CAR-T cells, EC17, sodium fluorescein) were given intravenously.\nFor AML studies, mice were intravenously infused with THP1-FRβ tumor cells 1 day prior to receiving a low dose of ~6 million E2-CAR-T cells (~23% EGFRt+). At ~3.5 days post CAR-T cell infusion, EC17 was dosed in 3 different ways including (i) SIW at 500 nmol/kg, (ii) thrice at 5/50/500 nmol/kg on Monday/Wednesday/Friday followed by a 9 day break in between cycles (TIW On/Off), and iii) as escalating doses of 5/10/100 nmol/kg in Cycle 1, 5/30/300 nmol/kg in Cycle 2, and 5/50/500 nmol/kg in Cycle 3, all on Monday/Thursday/Monday with a 6 day break in between cycles (M/Th/M, On/Off). On day 31, satellite animals were harvested for quantification of CAR-positive T cells identified in the mouse blood as human CD3ε+ EGFRt+ events and calculated as absolute numbers per 100 μL of whole blood. Upon euthanasia or at the end of study on day 38, total tumor load in THP1-FRβ tumor-bearing mice was assessed by measuring GFP+ tumor cells in the blood by flow cytometry and collecting liver weight (with metastatic lesions) and total weight of nonliver macrometastases found in the body cavities. Tumor fragments of liver metastases were enzymatically digested into single-cell suspensions and viable cell populations were analyzed for the status of CAR-T cell exhaustion using anti-human PD1, LAG3, and TIM3 (clones EH12.1, T47-530, and 7D3, respectively).\nDepending on the CAR-T cell dose and how EC17 is administered, tumor-bearing mice receiving FITC-specific CAR-T cells can experience severe CRS and varying degrees of body weight loss ([27], [33], [34]). Therefore, we developed a CRS grading system (0–5 scale) to empirically assess CRS toxicity from animals' gross morphology and social behavior to allow for better timing of CRS rescue. While grades 0 and 5 indicated normal (no CRS) or death (due to severe CRS), respectively, grades 1, 2, and 3–4 were considered mild, light-to-moderate, and severe CRS. In addition, all EC17 doses were intentionally given toward the end of any given day to allow potential CRS symptoms to develop overnight. On the days immediately following each EC17 dose, animals were scored and rescue agents such as sodium fluorescein, folic acid and leucovorin were used to mitigate CRS toxicity ([33]). In this particular instance, a batch of E2-CAR-T cells with a high EGFRt+ CD4/CD8 ratio (~93:7) was given to HOS-FRα tumor-bearing mice at a mixture of ~2.5 million CD8 and ~33 million CD4 on day 0. When EC17 was dosed, respectively, at 500, 100, and 500 nmol/kg on days 3, 10, and 12, low CRS (grades 1–2) was noted on days 4 and 11 but high CRS (grade 3) was noted on day 13. To mitigate the severe CRS toxicity, sodium fluorescein was intravenously administrated at ~96 mg/kg in the morning of day 13 and mouse plasma samples were collected 6 h later for analysis of CRS-associated cytokines.", "data": [{"smiles": "Nc1nc2ncc(CNc3ccc(C(=O)NC(CCC(=O)NCCNC(=S)Nc4ccc(-c5c6ccc(=O)cc-6oc6cc(O)ccc56)c(C(=O)O)c4)C(=O)O)cc3)nc2c(=O)[nH]1", "note": "(stereo not shown) [EC17, FA-(γ)-ethylenediamine-FITC]", "values": [{"measurement": "non-liver macrometastases", "setting": "EC17 M/Th/M dose escalation at a slow pace per cycle", "value": "failed to control"}, {"measurement": "CRS grade", "setting": "EC17 M/Th/M dose escalation, Cycle 2 after 300 nmol/kg, ~6 million E2-CAR-T cells", "value": "0–1"}, {"measurement": "CRS grade", "setting": "EC17 SIW 500 nmol/kg, Cycles 2 and 3, ~6 million E2-CAR-T cells", "value": "1–2"}, {"measurement": "non-liver macrometastases", "setting": "EC17 SIW and TIW at 10-fold dose escalation (on/off)", "value": "successfully controlled"}, {"measurement": "CRS grade", "setting": "EC17 TIW 5/50/500 nmol/kg on/off, ~6 million E2-CAR-T cells", "value": "0–1"}, {"measurement": "cures", "setting": "THP1-FRβ xenografts, EC17 plus E2-CAR-T cells", "value": "no cures"}, {"measurement": "circulating THP1-FRβ tumor cells in the blood", "setting": "any of the 3 EC17 regimens vs controls, ~6 million E2-CAR-T cells", "value": "effectively reduced"}]}]}
